# Assay results from patent publication US6517856B1, “Insecticide resistance assay” (priority 1998, dated 2003).
# Key:
# H. zea [1] = assay: Feeding disruption assay, CryIAc in Trypan Blue diet (fresh diet); assay type: in vivo, Helicoverpa zea
# Procedure: The blue diet used in the feeding disruption bioassay is an agar based insect meal containing 20 mg of Trypan Blue (Direct Blue 14; Matheson Coleman & Bell, Norwood, Ohio) per 100 ml of standard artificial diet, and containing different concentrations of CryIAc (MVP, Mycogen). Larvae feeding on this colored diet produced blue feces which were easily distinguished by observation from feces derived from other food sources. Assays were conducted in 1-ounce clear plastic cups (Solo Cup Company, Urbana, Ill.; approximately […] in diameter and ¾ inches high) fitted with white cardboard tops, which are routinely used for insect rearing in the inventors' laboratories. The clear plastic allowed for the observation of blue feces without opening the container.
# The diagnostic concentration for resistance detection was also investigated for its ability to distinguish Wake susceptible H. virescens from H. zea. In addition, dose response studies were conducted to identify a concentration of Bt that would distinguish resistant YHD2 neonates of H. virescens from H. zea. Dose response studies were duplicated for 25 resistant (HD2) tobacco budworms and 25 bollworms from two generations at different doses of Bt ranging from 0 to 1000 μg CryIAc/ml of blue diet.
# H. zea [2] = assay: Modified feeding disruption bioassay on MVP-hydrated meal pads, field strains; assay type: in vivo, Helicoverpa zea
# Procedure: Trypan Blue (Direct Blue 14; Matheson Coleman and Bell, Norwood, Ohio) was blended with artificial diet, 20 mg dye per 100 ml diet. Blue diet aliquots were dispensed (100 μl per well) into 8-well microtiter plate strips (Nalge Nunc Int., Napersville, Ill.). The blue dye served as a marker of feeding on the assay diet, with larvae feeding on colored diet producing blue feces which were easily distinguished visually from feces derived from other food sources. Microtiter plate strips containing blue diet were frozen at −80° C. and lyophilized (Bench Top 6, Virtis, Gardiner, N.Y.; cold trap=−70° C., ˜200 mTorr, ambient temperature=23° C.) for a minimum of 24 h in order to form hydratable meal pads. Meal pads were stored in the dark in sealed plastic bags with desiccant prior to use.
# Meal pads were hydrated with aqueous dilutions of the B. thuringiensis CryIAc δ-endotoxin formulation MVP (Mycogen, San Diego, Calif.) at least 1 h prior to the start of assays. Fresh diet aliquots (100 μl) consistently lost 78-84% of their water content by weight during the lyophilization process. Therefore, meal pads were hydrated with 80 μl of MVP in distilled water (treatments) or distilled water only (controls). The insecticide concentrations referenced throughout this paper are in μg MVP per ml of diet, i.e. the final concentration of insecticide in hydrated diet, which is 80% of the concentration of the solution used to hydrate the meal pads. Strip caps (Nunc) were cut into single caps in order to seal wells of the microtiter plate strips individually, which facilitated observation within wells while not allowing neighboring larvae to escape. In order to reduce condensation within the wells and provide larvae with air, caps were punctured twice with a #3 insect pin. Bioassays were conducted at 27±1° C. with a 14:10 (L:D) cycle, and blue fecal pellets were counted at 24 h. Neonates were used in all assays and were exposed to assay diets within 24 h of hatch. The results from each assay are taken from two replicates of each dose, with each replicate consisting of 24 larvae, one larva per well. Control (no dose) treatments were replicated three times. Dead larvae (defined as no movement for 30 s after prodding with a blunt probe) at the assay endpoint (24 h) were discarded and not included in the reported results. For each surviving larva, the number of fecal pellets produced was recorded. Serial dilutions of the MVP formulation were used for meal pad hydration, with separate dilution series prepared for each replicate.
# Following 24 h exposure to diet containing a known concentration of MVP (Mycogen), a surviving larva was designated as a ‘feeder’ if it had produced more than two fecal pellets and as a ‘non-feeder’ otherwise. The cut-off value of two fecal pellets was adopted because this provided the clearest separation between species. Probit analyses were applied to the dichotomized fecal pellet counts in order to compare strains, between and within species, with respect to the feeding disruption response. A probit model was then used to relate the proportion of non-feeders to dose (on a log10 scale). Probit curves were fitted separately for each insect strain, and a NFC50 (non-feeding concentration50; log10 of the MVP concentration resulting in 50% non-feeders) and slope was obtained for H. zea. Also, probit curves were compared across species and among strains within species using PROC GENMOD with LINK=PROBIT (SAS 1993) on the data for all strains combined, and fitting effects for species, strains within species, log10 dose, as well as dose by species and dose by strain within species interactions.
# Probit estimates of the proportion of feeders at the diagnostic concentration for each strain were used to predict the properties of an assay involving exposure of a small number, n, of larvae in individual wells for 24 h to diet containing a diagnostic concentration of the MVP formulation (final MVP concentration in diet 0.04 μg/ml). […]
# H. virescens = details: Gould et al. 1995; cited from earlier work
# [3] = H. zea neonates, 0.032 μg CryIAc/ml diet, 24 hour
substance,measurement,setting,value
"CryIAc: Bacillus thuringiensis CryIAc δ-endotoxin, commercial formulation MVP (Mycogen), >98.0% δ endotoxin",blue fecal pellets produced per larva,H. zea [1]; [3],≥ 7 blue fecal pellets
same,percentage producing ≧15 blue fecal pellets,H. zea [1]; [3],99%
same,percentage producing no blue feces,"H. zea [1]; H. zea neonates, 500 μg CryIAc/ml blue diet, 24 hours",100%
same,percentage producing 0-2 fecal pellets in 24 h,"H. zea [1]; laboratory susceptible H. zea colony, 1000 μg MVP per ml diet",98.0%
same,"pr, probability of a larva being a feeder, most conservative probit estimate","H. zea [2]; H. zea strains, diagnostic concentration 0.04 μg/ml, 24 h",0.80
same,non-feeding response (0-2 fecal pellets),"H. zea [2]; Hz Alachua neonates, 1200 μg MVP per ml diet, 24 h",87.2%
same,feeding response (>2 fecal pellets),"H. zea [2]; Hz Alachua, 0.04 μg MVP per ml diet, 24 h",100%
same,percentage of neonates remaining feeders (>2 fecal pellets per larva),"H. zea [2]; Hz Alachua, 1200 μg MVP per ml diet, 24 h",12.8%
same,percentage producing 0-2 fecal pellets over 24 h,"H. zea [2]; Hz Baldwin neonates, 400 μg MVP per ml diet",97.7%
same,non-feeding response (0-2 fecal pellets),"H. zea [2]; Hz Barnwell neonates, 1200 μg MVP per ml diet, 24 h",100%
same,feeding response (>2 fecal pellets),"H. zea [2]; Hz Barnwell, 0.04 μg MVP per ml diet, 24 h",100%
same,percentage producing 0-2 fecal pellets over 24 h,"H. zea [2]; Hz Harmon neonates, 400 μg MVP per ml diet",89.5%
same,"pr, feeding probability","H. zea [2]; Hz Irwin (south Georgia), 0.04 μg MVP per ml diet, 24 h",0.98
same,non-feeding response (0-2 fecal pellets),"H. zea [2]; Hz Nueces neonates, 1200 μg MVP per ml diet, 24 h",100%
same,percentage producing 0-2 fecal pellets over 24 h,"H. zea [2]; Hz Washington neonates, 400 μg MVP per ml diet",97.6%
same,feeding response (>2 fecal pellets),"H. zea [2]; Hz Washington, 0.04 μg MVP per ml diet, 24 h",80.4%
same,percentage of larvae producing >6 fecal pellets,"H. zea [2]; all H. zea larvae assayed, 1200 μg MVP per ml diet, 24 h",< 1%
same,percentage producing >15 fecal pellets,"H. zea [2]; each of Hz Alachua, Hz Barnwell, Hz Baldwin, 0.04 μg MVP per ml diet, 24 h",> 90%
same,percentage non-feeders,"H. zea [2]; each of three other H. zea field strains, 400 μg MVP per ml diet, 24 h",Less than 88.0%
same,non-feeding response,"H. zea [2]; three of the six H. zea susceptible field strains, 400 μg MVP per ml hydrated diet",> 89%
same,resistance of YHD2 strain to CryIAc compared to the Wake strain,H. virescens,> 2000 fold
